Reference: the supplement of paper PMC4862054

Each compound was assayed on BT-549 (assay: normalised response (% of control), CellTiter-Glo; higher = more viable cells (100 = DMSO, 0 = benzethonium chloride kill control)). Settings: incubation time: 72 h.
Summary of the method: (§1)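 Breast cancer cell lines were exposed for 72 h in 384-well plates to compound at 5 concentrations, 10-fold apart, covering a 10,000-fold range fixed for each compound. Plates were read for CellTox Green fluorescence and CellTiter-Glo luminescence and normalised to 0.1 % DMSO (100) and a positive kill control (0). Each value is the normalised signal at one concentration of the series.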
For Cc1cnc(NC(=O)Nc2cc(Br)c(C)cc2OC[C@@H]2CNCCO2)cn1 [Rabusertib] (1000 nM), the normalised response was 91.5%. In the case of N#Cc1ccc(C(c2ccc(C#N)cc2)n2cncn2)cc1 [Letrozole] (10000 nM), the normalised response is reported as 96.3%. For Nc1ncn([C@H]2C[C@H](O)[C@@H](CO)O2)c(=O)n1 [Decitabine] (10000 nM), the normalised response was 75.2%. Compound CC[C@H](Nc1ncnc2[nH]cnc12)c1nc2cccc(F)c2c(=O)n1-c1ccccc1 [GS-1101] (10000 nM) has a normalised response of 69.6%. CC1=C(/C=C/C(C)=C/C=C/C(C)=C/C(=O)O)C(C)(C)CCC1 [Tretinoin] (10000 nM) was tested, and the normalised response was 62.2%. With COc1cc([C@@H]2c3cc4c(cc3[C@@H](O[C@@H]3O[C@@H]5CO[C@@H](c6cccs6)O[C@H]5[C@H](O)[C@H]3O)[C@H]3COC(=O)[C@H]23)OCO4)cc(OC)c1O [Teniposide] (10000 nM) the normalised response was 5.21%.

What follows are compounds tested on HCC1599 in the same assay as above. Settings: incubation time: 72 h.
Summary of the method: as §1
Compound O=C(Cc1ccc(-c2ccc(OCCN3CCOCC3)cc2)cn1)NCc1ccccc1 [KX2-391] (10000 nM) has a normalised response of 9.36%. CC[C@@H]1C(=O)N(C)c2cnc(Nc3ccc(C(=O)NC4CCN(C)CC4)cc3OC)nc2N1C1CCCC1 [BI 2536] (1000 nM) gave a normalised response of 26.5%. In the case of Nc1ccccc1NC(=O)c1ccc(CNC(=O)OCc2cccnc2)cc1 [Entinostat] (10000 nM), the normalised response is reported as 32.3%. In the case of Cc1cnc(NC(=O)Nc2cc(Br)c(C)cc2OC[C@@H]2CNCCO2)cn1 [Rabusertib] (1000 nM), the normalised response is reported as 29.4%. N#Cc1ccc(C(c2ccc(C#N)cc2)n2cncn2)cc1 [Letrozole] (10000 nM) gave a normalised response of 85.2%. In the case of Nc1ncn([C@H]2C[C@H](O)[C@@H](CO)O2)c(=O)n1 [Decitabine] (10000 nM), the normalised response is reported as 94.1%. In the case of CC[C@H](Nc1ncnc2[nH]cnc12)c1nc2cccc(F)c2c(=O)n1-c1ccccc1 [GS-1101] (10000 nM), the normalised response is reported as 107%. CC1=C(/C=C/C(C)=C/C=C/C(C)=C/C(=O)O)C(C)(C)CCC1 [Tretinoin] (10000 nM) gave a normalised response of 61.6%. In the case of COc1cc([C@@H]2c3cc4c(cc3[C@@H](O[C@@H]3O[C@@H]5CO[C@@H](c6cccs6)O[C@H]5[C@H](O)[C@H]3O)[C@H]3COC(=O)[C@H]23)OCO4)cc(OC)c1O [Teniposide] (10000 nM), the normalised response is reported as 5.92%.

The compounds below were run on CAL-148 in the same assay as above. Settings: incubation time: 72 h.
Summary of the method: as §1
Compound O=C(Cc1ccc(-c2ccc(OCCN3CCOCC3)cc2)cn1)NCc1ccccc1 [KX2-391] (10000 nM) has a normalised response of 54.9%. With CC[C@@H]1C(=O)N(C)c2cnc(Nc3ccc(C(=O)NC4CCN(C)CC4)cc3OC)nc2N1C1CCCC1 [BI 2536] (1000 nM) the normalised response was 79.9%. Nc1ccccc1NC(=O)c1ccc(CNC(=O)OCc2cccnc2)cc1 [Entinostat] (10000 nM) was tested, and the normalised response was 29.8%. Work on Cc1cnc(NC(=O)Nc2cc(Br)c(C)cc2OC[C@@H]2CNCCO2)cn1 [Rabusertib] (1000 nM) yielded a normalised response of 112%. N#Cc1ccc(C(c2ccc(C#N)cc2)n2cncn2)cc1 [Letrozole] (10000 nM) showed a normalised response of 101%. Work on Nc1ncn([C@H]2C[C@H](O)[C@@H](CO)O2)c(=O)n1 [Decitabine] (10000 nM) yielded a normalised response of 82.6%. With CC[C@H](Nc1ncnc2[nH]cnc12)c1nc2cccc(F)c2c(=O)n1-c1ccccc1 [GS-1101] (10000 nM) the normalised response was 86%. CC1=C(/C=C/C(C)=C/C=C/C(C)=C/C(=O)O)C(C)(C)CCC1 [Tretinoin] (10000 nM) showed a normalised response of 75%. For COc1cc([C@@H]2c3cc4c(cc3[C@@H](O[C@@H]3O[C@@H]5CO[C@@H](c6cccs6)O[C@H]5[C@H](O)[C@H]3O)[C@H]3COC(=O)[C@H]23)OCO4)cc(OC)c1O [Teniposide] (10000 nM), the normalised response was 4.81%.

What follows are compounds tested on Hs578T in the same assay as above. Settings: incubation time: 72 h.
Summary of the method: as §1
In the case of O=C(Cc1ccc(-c2ccc(OCCN3CCOCC3)cc2)cn1)NCc1ccccc1 [KX2-391] (10000 nM), the normalised response is reported as 18.4%. Work on CC[C@@H]1C(=O)N(C)c2cnc(Nc3ccc(C(=O)NC4CCN(C)CC4)cc3OC)nc2N1C1CCCC1 [BI 2536] (1000 nM) yielded a normalised response of 24.2%. For Nc1ccccc1NC(=O)c1ccc(CNC(=O)OCc2cccnc2)cc1 [Entinostat] (10000 nM), the normalised response was 48.3%. In the case of Cc1cnc(NC(=O)Nc2cc(Br)c(C)cc2OC[C@@H]2CNCCO2)cn1 [Rabusertib] (1000 nM), the normalised response is reported as 71.3%. For N#Cc1ccc(C(c2ccc(C#N)cc2)n2cncn2)cc1 [Letrozole] (10000 nM), the normalised response was 97.7%. For Nc1ncn([C@H]2C[C@H](O)[C@@H](CO)O2)c(=O)n1 [Decitabine] (10000 nM), the normalised response was 89.4%. CC[C@H](Nc1ncnc2[nH]cnc12)c1nc2cccc(F)c2c(=O)n1-c1ccccc1 [GS-1101] (10000 nM) showed a normalised response of 76.5%. Compound CC1=C(/C=C/C(C)=C/C=C/C(C)=C/C(=O)O)C(C)(C)CCC1 [Tretinoin] (10000 nM) has a normalised response of 72.9%. Work on COc1cc([C@@H]2c3cc4c(cc3[C@@H](O[C@@H]3O[C@@H]5CO[C@@H](c6cccs6)O[C@H]5[C@H](O)[C@H]3O)[C@H]3COC(=O)[C@H]23)OCO4)cc(OC)c1O [Teniposide] (10000 nM) yielded a normalised response of 6.65%.

What follows are compounds tested on MCF-10A in the same assay as above. Settings: incubation time: 72 h.
Summary of the method: as §1
Compound O=C(Cc1ccc(-c2ccc(OCCN3CCOCC3)cc2)cn1)NCc1ccccc1 [KX2-391] (10000 nM) has a normalised response of 77%. Compound CC[C@@H]1C(=O)N(C)c2cnc(Nc3ccc(C(=O)NC4CCN(C)CC4)cc3OC)nc2N1C1CCCC1 [BI 2536] (1000 nM) has a normalised response of 44.4%. Nc1ccccc1NC(=O)c1ccc(CNC(=O)OCc2cccnc2)cc1 [Entinostat] (10000 nM) was tested, and the normalised response was 82.9%. In the case of Cc1cnc(NC(=O)Nc2cc(Br)c(C)cc2OC[C@@H]2CNCCO2)cn1 [Rabusertib] (1000 nM), the normalised response is reported as 112%. N#Cc1ccc(C(c2ccc(C#N)cc2)n2cncn2)cc1 [Letrozole] (10000 nM) showed a normalised response of 106%. In the case of Nc1ncn([C@H]2C[C@H](O)[C@@H](CO)O2)c(=O)n1 [Decitabine] (10000 nM), the normalised response is reported as 83.8%. Work on CC[C@H](Nc1ncnc2[nH]cnc12)c1nc2cccc(F)c2c(=O)n1-c1ccccc1 [GS-1101] (10000 nM) yielded a normalised response of 63%. In the case of CC1=C(/C=C/C(C)=C/C=C/C(C)=C/C(=O)O)C(C)(C)CCC1 [Tretinoin] (10000 nM), the normalised response is reported as 60.7%. Work on COc1cc([C@@H]2c3cc4c(cc3[C@@H](O[C@@H]3O[C@@H]5CO[C@@H](c6cccs6)O[C@H]5[C@H](O)[C@H]3O)[C@H]3COC(=O)[C@H]23)OCO4)cc(OC)c1O [Teniposide] (10000 nM) yielded a normalised response of 51.8%.
